# According to US20120149694A1, “Substituted piperidines” (BAYER PHARMA AKTIENGESELLSCHAFT, priority 2009, published 2012):
# Target: T1, human protease activated receptor 1 (PAR-1) (Homo sapiens, UniProt P25116)
# T1 construct: the cell stably expresses the endogenous human PAR-1 receptor; endogenous in cells; host or cells: HEK293-derived recombinant cell line expressing mitochondrial aequorin
# T1 sequence (P25116 22-425): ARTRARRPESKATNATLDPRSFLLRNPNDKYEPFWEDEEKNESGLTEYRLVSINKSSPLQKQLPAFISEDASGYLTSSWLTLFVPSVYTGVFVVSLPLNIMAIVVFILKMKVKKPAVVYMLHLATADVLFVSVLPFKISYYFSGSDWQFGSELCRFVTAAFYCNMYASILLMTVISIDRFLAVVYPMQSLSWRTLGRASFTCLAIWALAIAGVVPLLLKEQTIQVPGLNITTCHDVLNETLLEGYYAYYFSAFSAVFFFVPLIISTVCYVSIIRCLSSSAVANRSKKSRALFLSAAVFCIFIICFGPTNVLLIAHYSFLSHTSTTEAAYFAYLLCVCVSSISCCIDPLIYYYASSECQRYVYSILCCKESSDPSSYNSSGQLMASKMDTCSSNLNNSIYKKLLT
# Test: Cellular functional in vitro test (PAR-1 antagonism, aequorin luminescence calcium readout)
# Assay type: cell-based
# Conditions: recombinant HEK293-derived aequorin cell line with endogenous PAR-1; PAR-1 agonist added at its EC50, 5 min after test substance
# Text: A recombinant cell line is used to identify antagonists of the human protease activated receptor 1 (PAR-1) and to quantify the activity of the substances described herein. The cell is originally derived from a human embryonal kidney cell (HEK293; ATCC: American Type Culture Collection, Manassas, Va. 20108, USA). The test cell line constitutively expresses a modified form of the calcium-sensitive photoprotein aequorin which, after reconstitution with the cofactor coelenterazine, emits light when the free calcium concentration in the inner mitochondrial compartment is increased (Rizzuto R, Simpson A W, Brini M, Pozzan T.; Nature 1992, 358, 325-327). Additionally, the cell stably expresses the endogenous human PAR-1 receptor and the endogenous purinergic receptor P2Y2. The resulting PAR-1 test cell responds to stimulation of the endogenous PAR-1 or P2Y2 receptor with an intracellular release of calcium ions, which can be quantified through the resulting aequorin luminescence with a suitable luminometer (Milligan G, Marshall F, Rees S, Trends in Pharmacological Sciences 1996, 17, 235-237).
# For the testing of the substance specificity, the effect thereof after activation of the endogenous PAR-1 receptor is compared with the effect after activation of the endogenous purinergic P2Y2 receptor which utilizes the same intracellular signal path.
# Test procedure: The cells are plated out two days (48 h) before the test in culture medium (DMEM F12, supplemented with 10% FCS, 2 mM glutamine, 20 mM HEPES, 1.4 mM pyruvate, 0.1 mg/ml gentamycin, 0.15% Na bicarbonate; BioWhittaker Cat.# BE04-687Q; B-4800 Verviers, Belgium) in 384-well microtitre plates and kept in a cell incubator (96% atmospheric humidity, 5% v/v CO2, 37° C.). On the day of the test, the culture medium is replaced by a tyrode solution (in mM: 140 sodium chloride, 5 potassium chloride, 1 magnesium chloride, 2 calcium chloride, 20 glucose, 20 HEPES), which additionally contains the cofactor coelenterazine (25 μM) and glutathione (4 mM), and the microtitre plate is then incubated for a further 3-4 hours. The test substances are then pipetted onto the microtitre plate, and 5 minutes after the transfer of the test substances into the wells of the microtitre plate the plate is transferred into the luminometer, a PAR-1 agonist concentration which corresponds to EC50 is added and the resulting light signal is immediately measured in the luminometer. To distinguish an antagonist substance action from a toxic action, the endogenous purinergic receptor is immediately subsequently activated with agonist (ATP, final concentration 10 μM) and the resulting light signal is measured.
row,Structure (SMILES),IC50 [nM]
1,"O=C(N1CCOCC1)N1CC(CSc2cccc(F)c2)CC(c2ccc(C(F)(F)F)cc2)C1 (racemic) [Example 40, (3-{[(3-Fluorophenyl)sulphanyl]methyl}-5-[4-(trifluoromethyl)phenyl]piperidin-1-yl)(morpholin-4-yl)methanone]",3
2,"CS(=O)(=O)NCC1CC(c2ccc(C(F)(F)F)cc2)CN(C(=O)N2CCOCC2)C1 (single isomer, unassigned) [Example 6, N-({1-(Morpholin-4-ylcarbonyl)-5-[4-(trifluoromethyl)phenyl]piperidin-3-yl}methyl)methanesulphonamide]",8
3,"O=C(CC1CC(c2ccc(C(F)(F)F)cc2)CN(C(=O)N2CCOCC2)C1)Nc1ccccc1 (racemic) [Example 15, 2-{1-(Morpholin-4-ylcarbonyl)-5-[4-(trifluoromethyl)phenyl]piperidin-3-yl}-N-phenylacetamide]",56
4,"O=C(N1CCOCC1)N1CC(CS(=O)(=O)C2CCCC2)CC(c2ccc(C(F)(F)F)cc2)C1 (racemic) [Example 48, {3-[(Cyclopentylsulphonyl)methyl]-5-[4-(trifluoromethyl)phenyl]piperidin-1-yl}(morpholin-4-yl)methanone]",24
5,"CC(C)(C)C(=O)NCC1CC(c2ccc(C(F)(F)F)cc2)CN(C(=O)N2CCOCC2)C1 (racemic) [Example 1, 2,2-Dimethyl-N-({1-(morpholin-4-ylcarbonyl)-5-[4-(trifluoromethyl)phenyl]piperidin-3-yl}methyl)propaneamide]",177
